Measurements reported in patent publication US20120157499A1, “DELIVERY OF AN ACTIVE DRUG TO THE POSTERIOR PART OF THE EYE VIA SUBCONJUNCTIVAL OR PERIOCULAR DELIVERY OF A PRODRUG” (Allergan, Inc., priority 2003, published 2012).

What was measured:
[1] = Subconjunctival injection into a patient suffering from retinitis pigmentosa; assay type: in vivo; conditions: 1 mg in poly(lactide-co-glycolide) microsphere suspension, injected subconjunctivally
Description: A dose of tazarotene (1 mg) contained in the poly(lactide-co-glycolide) microsphere suspension of Example containing 1 is injected subconjunctivally into a patient suffering from retinitis pigmentosa.
A dose of all-trans retinyl palmitate (1 mg) contained in the poly(lactide-co-glycolide) microsphere suspension of Example containing 1 is injected subconjunctivally into a patient suffering from retinitis pigmentosa.

[2] = Subconjunctival injection into a patient suffering from proliferative vitreal retinopathy; assay type: in vivo; conditions: 1 mg in poly(lactide-co-glycolide) microsphere suspension, injected subconjunctivally
Description: A dose of tazarotene (1 mg) contained in the poly(lactide-co-glycolide) microsphere suspension of Example containing 1 is injected subconjunctivally into a patient suffering from proliferative vitreal retinopathy.

RARγ = molecular target: T1, RARγ (Homo sapiens, UniProt P13631); assay: RARγ receptor binding assay, competition with [3H] retinoic acid; conditions: Baculovirus-expressed receptor; Kd from IC50 by Cheng-Prussof; mean and standard deviation; read-out: receptor affinity (KD), RARγ
T1 construct: made in house
T1 sequence (P13631 1-454): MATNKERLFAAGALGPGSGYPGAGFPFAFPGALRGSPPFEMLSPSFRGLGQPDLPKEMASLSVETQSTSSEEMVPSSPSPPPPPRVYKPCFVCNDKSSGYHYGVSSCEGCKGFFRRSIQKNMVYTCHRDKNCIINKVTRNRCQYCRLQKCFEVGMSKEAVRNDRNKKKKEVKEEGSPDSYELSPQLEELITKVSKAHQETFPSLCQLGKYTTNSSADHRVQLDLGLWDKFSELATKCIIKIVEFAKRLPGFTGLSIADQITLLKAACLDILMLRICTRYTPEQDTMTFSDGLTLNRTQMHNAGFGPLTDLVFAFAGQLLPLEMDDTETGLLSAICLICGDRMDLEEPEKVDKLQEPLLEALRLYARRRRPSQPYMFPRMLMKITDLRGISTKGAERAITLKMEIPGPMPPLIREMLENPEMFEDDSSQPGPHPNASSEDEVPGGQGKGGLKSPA
Description: (§1) The binding of tazarotene and tazarotenic acid to the retinoic acid receptor (RAR) family receptors (RARα, RARβ, RARγ) was determined as follows.
(§2) All binding assays were performed in a similar fashion. All three receptor subtypes were derived from the expressed receptor type (RARα, RARβ, and RARγ) expressed in Baculovirus. Stock solutions of the compounds were prepared as 10 mM ethanol solutions and serial dilutions carried out into 1:1 DMSO; ethanol. Assay buffers consisted of the following for all six receptor assays: 8% glycerol, 120 mM KCl, 8 mM Tris, 5 mM CHAPS 4 mM DTT and 0.24 mM PMSF, pH-7.4 @ room temperature.
(§3) All receptor binding assays were performed in the same manner. […] The amount of receptor-ligand complex was determined by liquid scintillation counting of hydroxyapitite pellet.
(§4) After correcting for non-specific binding, IC50 values were determined. […] The IC50 value was determined graphically from a loglogit plot of the data. The […] were determined by application of the Cheng-Prussof equation to the IC50 values, the labeled ligand concentration and the Kd of the labeled ligand.
(§5) The results of ligand binding assay are expressed in Kd numbers. […] Binding data for tazarotenic acid is expressed as the mean and standard deviation. […]

RARβ = molecular target: T2, RARβ (Homo sapiens, UniProt P10826); assay: RARβ receptor binding assay, competition with [3H] retinoic acid; conditions: Baculovirus-expressed receptor; Kd from IC50 by Cheng-Prussof; mean and standard deviation; read-out: receptor affinity (KD), RARβ
T2 construct: made in house
T2 sequence (P10826 1-455): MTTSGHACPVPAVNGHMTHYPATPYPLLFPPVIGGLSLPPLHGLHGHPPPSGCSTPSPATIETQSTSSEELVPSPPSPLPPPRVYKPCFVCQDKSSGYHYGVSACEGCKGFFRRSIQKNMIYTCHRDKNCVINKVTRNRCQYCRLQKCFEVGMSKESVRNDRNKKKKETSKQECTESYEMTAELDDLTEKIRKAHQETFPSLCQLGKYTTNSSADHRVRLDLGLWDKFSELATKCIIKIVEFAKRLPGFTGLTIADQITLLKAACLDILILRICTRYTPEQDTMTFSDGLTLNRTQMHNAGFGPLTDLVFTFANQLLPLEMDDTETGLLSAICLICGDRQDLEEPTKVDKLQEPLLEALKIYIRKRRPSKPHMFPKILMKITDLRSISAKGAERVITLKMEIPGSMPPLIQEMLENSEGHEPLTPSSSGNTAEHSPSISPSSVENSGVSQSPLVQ
Description: as §1, §2, §3, §4, §5

[3] = Ocular disposition of tazarotene and tazarotenic acid after intraocular and subconjunctival administration of tazarotene; assay type: in vivo; conditions: albino rabbits
Description: General disposition of tazarotene and tazarotenic acid resulting from intraocular and subconjunctival administration of tazarotene was assessed. Albino rabbits were dosed via intraocular injection with 1.25 μg of tazarotene. Injection was made mid-vitreous. After dosing the vitreous, retina and aqueous humor concentrations of tazarotene and tazarotenic acid were determined at 0.5, 1, 2, 4, 8, 12 and 24 hours post dosing.
Tazarotene was also dosed in the subconjunctival space. Three dosage forms were evaluated: the tazarotene aqueous suspension described in Example 2 (50 μl of the solution, 1 mg tazarotene), tazarotene olive oil solution described in Example 3 (50 μl mg of the solution, 1 mg of tazarotene), and the tazarotene poly(lactide-co-glycolide) microsphere suspension described in Example 1. After dosing, the vitreous, retina and aqueous humor concentrations of tazarotene and tazarotenic acid were determined at 2, 8, 24, 48, 96, 168 and 336 hours post dosing (see FIGS. 1-8). […] In Table 1 the mean vitreous concentration refers to average vitreous concentration observed from zero to one hundred sixty-eight hours post dosing. The mean vitreous concentration at each time point was used to calculate the overall vitreous mean concentration over the 168 hours for a given route of administration and dosage form. […]

RARα = molecular target: T3, RARα (Homo sapiens, UniProt P10276); assay: RARα receptor binding assay, competition with [3H] retinoic acid; conditions: Baculovirus-expressed receptor; Kd from IC50 by Cheng-Prussof; mean and standard deviation; read-out: receptor affinity (KD), RARα
T3 construct: made in house
T3 sequence (P10276 1-462): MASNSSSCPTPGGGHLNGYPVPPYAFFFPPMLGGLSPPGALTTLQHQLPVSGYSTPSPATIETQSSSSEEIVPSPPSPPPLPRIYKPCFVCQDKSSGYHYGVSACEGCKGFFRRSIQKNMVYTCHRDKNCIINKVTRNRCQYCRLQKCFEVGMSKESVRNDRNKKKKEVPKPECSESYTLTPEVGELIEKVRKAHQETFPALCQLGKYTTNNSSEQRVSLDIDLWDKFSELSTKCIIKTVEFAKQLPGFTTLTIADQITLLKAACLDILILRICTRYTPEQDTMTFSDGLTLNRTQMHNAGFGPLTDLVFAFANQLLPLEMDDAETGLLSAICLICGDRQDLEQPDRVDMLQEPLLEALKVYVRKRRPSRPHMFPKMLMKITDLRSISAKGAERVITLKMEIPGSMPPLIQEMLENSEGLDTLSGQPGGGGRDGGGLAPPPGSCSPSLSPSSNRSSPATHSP
Description: All binding assays were performed in a similar fashion.
All receptor binding assays were performed in the same manner. […] Incubations were carried out at 4° C. until equilibrium was achieved. Non-specific binding was defined as that binding remaining in the presence of 1000 nM of the appropriate unlabeled retinoic acid isomer. […] The mixture was vortexed and incubated for 10 minutes at 4° C., centrifuged and the supernatant removed. The hydroxyapitite was washed three more times with the appropriate wash buffer. The receptor-ligand complex was adsorbed by the hydroxyapitite. The amount of receptor-ligand complex was determined by liquid scintillation counting of hydroxyapitite pellet.
as §4
The results of ligand binding assay are expressed in Kd numbers.

| Compound | effect on vision, retinitis pigmentosa [1] | effect on traction retinal detachment, proliferative vitreal retinopathy [2] | Kd (RARγ) [nM] | Kd (RARβ) [nM] | maximal vitreous concentration of tazarotenic acid obtainable after direct intraocular implantation ([3]; intraocular tazarotene) [ng/mL] | period for which concentrations were maintained at low effective levels ([3]; subconjunctival dosing of tazarotene, ocular tissues) [h] | Kd (RARα) [nM] |
| --- | --- | --- | --- | --- | --- | --- | --- |
| CCCCCCCCCCCCCCCC(=O)OC/C=C(C)/C=C/C=C(C)/C=C/C1=C(C)CCCC1(C)C [all-trans retinyl palmitate] | Maintenance of vision or a slowing of the progression of vision loss is observed | – | – | – | – | – | – |
| CCOC(=O)c1ccc(C#Cc2ccc3c(c2)C(C)(C)CCS3)nc1 [tazarotene, ethyl 6-[(4,4-dimethylthiochroman-6-yl)ethynyl]nicotinate] | Maintenance of vision or a slowing of the progression of vision loss is observed | Traction retinal detachment is prevented or the rate of traction retinal detachment is reduced | – | – | – | – | – |
| CC1(C)CCSc2ccc(C#Cc3ccc(C(=O)O)cn3)cc21 [tazarotenic acid, 4,4-dimethyl-6-[2′-(5″-carboxy-2″-pyridyl)-ethynyl]-thiochroman] | – | – | 353 ± 37 | 164 ± 48 | 10 | 336 | 901 ± 123 |
